Results published in ChEMBL document CHEMBL1201862, “PubChem BioAssay data set” (2004).
Active and inactive are the calls of the source.

What was measured:
[1] = biological target: 1-acylglycerol-3-phosphate O-acyltransferase ABHD5/Perilipin-5 (Homo sapiens, UniProt Q00G26+Q8WTS1); assay: Luminescence-based biochemical high throughput dose response assay for inhibitors of the interaction of the lipase co-activator protein, abhydrolase domain containing 5 (ABHD5) with perilipin-5 (MLDP; PLIN5) (2K validation set). [Related pubchem assays (depositor defined):AID493035, AID493241]
Perilipin-1/ABHD5 = Perilipin-1/ABHD5 (Homo sapiens, UniProt O60240+Q8WTS1); assay: Luminescence-based biochemical high throughput dose response assay for inhibitors of the interaction of the lipase co-activator protein, abhydrolase domain containing 5 (ABHD5) with perilipin-1 (PLIN1) (2K validation set). [Related pubchem assays (depositor defined):AID493027, AID493057]
[2] = biological target: Heat shock protein HSP 90-alpha (Homo sapiens, UniProt P07900); type: functional, organism-based
[3] = NIH-3T3 fibroblast cytotoxicity, dose response, cytotoxicity control, cell-based, fluorescence, Alamar Blue, secondary assay (AID 2327); type: functional;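 also: NIH-3T3 mouse fibroblasts cultured with fluconazole at 8 µg/mL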
[4] = fluconazole-exposed Candida albicans growth modulators – fluorescence, retest, confirmation (AID 2467); type: functional, cell-based
[5] = biological target: T1, Serine/threonine-protein phosphatase (Candida dubliniensis (strain CD36 / CBS 7987 / NCPF 3949 / NRRLY-17841) (Yeast), UniProt B9W6M3); assay: blockers of CaCl2-induced CDRE-lacZ signaling – S. cerevisiae, luminescence, secondary, dose response (AID 2388); type: functional, cell-based;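 also: yeast reporter cells carrying a calcineurin-responsive lacZ construct stimulated with calcium chloride; luminescent beta-galactosidase reporter signal in whole cells rather than isolated phosphatase activity; potency for inhibition where a drop in reporter signal means calcineurin blockade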
T1 sequence (B9W6M3 whole entry): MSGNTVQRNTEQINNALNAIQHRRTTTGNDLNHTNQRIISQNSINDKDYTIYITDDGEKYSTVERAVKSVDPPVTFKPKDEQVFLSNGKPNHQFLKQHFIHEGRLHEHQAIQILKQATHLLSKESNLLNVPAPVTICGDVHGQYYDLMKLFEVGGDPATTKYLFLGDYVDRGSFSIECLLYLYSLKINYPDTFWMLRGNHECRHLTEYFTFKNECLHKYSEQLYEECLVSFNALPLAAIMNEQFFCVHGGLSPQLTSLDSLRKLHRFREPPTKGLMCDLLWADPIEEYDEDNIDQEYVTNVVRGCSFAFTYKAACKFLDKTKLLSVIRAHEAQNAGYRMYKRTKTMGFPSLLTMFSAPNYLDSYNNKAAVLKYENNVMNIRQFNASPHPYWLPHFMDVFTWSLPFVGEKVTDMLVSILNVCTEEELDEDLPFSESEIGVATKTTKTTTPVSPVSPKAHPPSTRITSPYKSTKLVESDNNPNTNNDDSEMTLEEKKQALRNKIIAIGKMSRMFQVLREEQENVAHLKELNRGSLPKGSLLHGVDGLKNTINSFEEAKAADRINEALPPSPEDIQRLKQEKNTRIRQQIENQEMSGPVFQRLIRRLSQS

[6] = Cytotoxicity screening for potential Inhibitors of Bacterial Capsule Biogenesis. [Related pubchem assays (depositor defined):AID488970]; type: functional
[7] = biological target: ATP-dependent molecular chaperone HSP82 (Candida albicans (strain WO-1) (Yeast), UniProt C4YTQ8); assay: steroid-induced GRE reporter decrease in yeast – S. cerevisiae, luminescence, Hsp90 inhibitor project, dose response (AID 2400); type: functional, cell-based;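 also: beta-galactosidase luminescence from glucocorticoid response element reporter as proxy for Hsp90 function; inhibitor potency where signal loss means Hsp90 inhibition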
Prothrombin = Prothrombin (Homo sapiens, UniProt P00734); assay: Thrombin 1536 HTS Dose Response Confirmation. [Related pubchem assays: 1046 (Thrombin 1536 HTS; hits were confirmed in this assay)]; type: functional
[8] = biological target: Neurotensin receptor type 1 (Homo sapiens, UniProt P30989); type: functional;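 also: Image-based confirmatory dose-response assay measuring agonist activity at NTR1; NTR1-expressing U2OS osteosarcoma cells imaged for beta-arrestin GFP spot formation; agonist potency where compounds increase beta-arrestin recruitment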
[9] = biological target: T2, Voltage-gated N-type calcium channel alpha-1B subunit/Amyloid beta A4 precursor protein-binding family A member 1 (Homo sapiens, UniProt Q00975+Q02410); assay: disruptors of Mint-PDZ/N-type channel peptide interaction – biochemical, HTRF, set 2, SAR follow-up (AID 434980); type: functional
T2 sequence (Q00975 whole entry): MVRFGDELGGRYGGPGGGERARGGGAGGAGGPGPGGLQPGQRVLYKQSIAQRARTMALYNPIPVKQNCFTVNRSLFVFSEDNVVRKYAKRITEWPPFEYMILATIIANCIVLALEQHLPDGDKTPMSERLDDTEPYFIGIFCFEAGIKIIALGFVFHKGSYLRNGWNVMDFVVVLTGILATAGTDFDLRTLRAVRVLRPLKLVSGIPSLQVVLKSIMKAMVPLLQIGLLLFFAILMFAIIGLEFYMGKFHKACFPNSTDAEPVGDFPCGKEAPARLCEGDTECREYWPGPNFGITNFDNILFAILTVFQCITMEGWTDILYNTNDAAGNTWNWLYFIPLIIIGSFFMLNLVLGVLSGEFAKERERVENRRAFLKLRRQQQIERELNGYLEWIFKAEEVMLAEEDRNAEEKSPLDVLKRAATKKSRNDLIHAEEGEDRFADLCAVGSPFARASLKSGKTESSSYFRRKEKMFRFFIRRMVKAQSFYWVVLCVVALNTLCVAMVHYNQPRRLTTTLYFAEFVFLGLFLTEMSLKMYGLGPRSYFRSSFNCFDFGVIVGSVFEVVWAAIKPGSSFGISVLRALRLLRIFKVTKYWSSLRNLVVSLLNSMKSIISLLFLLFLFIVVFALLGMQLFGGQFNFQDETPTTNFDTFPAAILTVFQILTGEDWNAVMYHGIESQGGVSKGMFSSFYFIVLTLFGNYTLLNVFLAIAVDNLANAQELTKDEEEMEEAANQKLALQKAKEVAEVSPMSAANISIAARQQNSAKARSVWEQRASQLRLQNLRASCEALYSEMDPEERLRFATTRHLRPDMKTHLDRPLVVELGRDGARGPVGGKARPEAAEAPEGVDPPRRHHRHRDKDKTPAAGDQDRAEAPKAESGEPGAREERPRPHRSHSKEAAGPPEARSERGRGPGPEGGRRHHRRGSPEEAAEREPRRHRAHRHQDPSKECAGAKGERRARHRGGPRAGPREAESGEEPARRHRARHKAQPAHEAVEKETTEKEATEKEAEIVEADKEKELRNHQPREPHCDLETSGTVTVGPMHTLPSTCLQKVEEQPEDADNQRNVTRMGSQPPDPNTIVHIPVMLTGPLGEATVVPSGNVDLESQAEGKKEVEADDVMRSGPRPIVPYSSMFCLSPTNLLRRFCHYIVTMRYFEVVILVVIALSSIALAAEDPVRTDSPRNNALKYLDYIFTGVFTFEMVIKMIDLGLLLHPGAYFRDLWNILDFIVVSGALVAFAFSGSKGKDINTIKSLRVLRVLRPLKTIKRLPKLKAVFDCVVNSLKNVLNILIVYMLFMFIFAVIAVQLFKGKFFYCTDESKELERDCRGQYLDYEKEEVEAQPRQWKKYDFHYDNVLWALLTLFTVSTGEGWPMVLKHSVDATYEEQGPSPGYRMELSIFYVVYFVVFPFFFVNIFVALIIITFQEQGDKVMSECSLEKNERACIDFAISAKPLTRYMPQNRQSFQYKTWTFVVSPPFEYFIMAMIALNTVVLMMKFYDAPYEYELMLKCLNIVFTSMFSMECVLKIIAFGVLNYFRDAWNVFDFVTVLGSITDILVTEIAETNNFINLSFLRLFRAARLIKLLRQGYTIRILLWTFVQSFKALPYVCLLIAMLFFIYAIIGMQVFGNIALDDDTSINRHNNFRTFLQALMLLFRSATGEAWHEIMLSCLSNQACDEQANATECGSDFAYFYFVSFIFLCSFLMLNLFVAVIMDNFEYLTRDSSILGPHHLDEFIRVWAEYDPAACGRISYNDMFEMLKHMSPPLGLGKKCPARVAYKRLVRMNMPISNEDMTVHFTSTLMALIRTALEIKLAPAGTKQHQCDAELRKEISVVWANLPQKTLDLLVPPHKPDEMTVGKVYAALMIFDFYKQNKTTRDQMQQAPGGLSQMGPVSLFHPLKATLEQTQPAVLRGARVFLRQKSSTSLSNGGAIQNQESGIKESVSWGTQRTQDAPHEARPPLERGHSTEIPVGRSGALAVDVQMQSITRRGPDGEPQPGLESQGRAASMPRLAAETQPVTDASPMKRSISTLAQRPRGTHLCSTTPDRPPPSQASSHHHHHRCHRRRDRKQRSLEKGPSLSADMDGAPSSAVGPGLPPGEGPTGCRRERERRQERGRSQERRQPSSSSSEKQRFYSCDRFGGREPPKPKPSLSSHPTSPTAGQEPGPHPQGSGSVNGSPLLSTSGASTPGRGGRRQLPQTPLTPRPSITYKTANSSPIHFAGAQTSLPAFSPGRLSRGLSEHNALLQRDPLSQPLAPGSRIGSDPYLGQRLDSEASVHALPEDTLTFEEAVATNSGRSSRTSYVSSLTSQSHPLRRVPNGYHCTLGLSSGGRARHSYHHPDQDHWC
T2 sequence (Q02410 whole entry): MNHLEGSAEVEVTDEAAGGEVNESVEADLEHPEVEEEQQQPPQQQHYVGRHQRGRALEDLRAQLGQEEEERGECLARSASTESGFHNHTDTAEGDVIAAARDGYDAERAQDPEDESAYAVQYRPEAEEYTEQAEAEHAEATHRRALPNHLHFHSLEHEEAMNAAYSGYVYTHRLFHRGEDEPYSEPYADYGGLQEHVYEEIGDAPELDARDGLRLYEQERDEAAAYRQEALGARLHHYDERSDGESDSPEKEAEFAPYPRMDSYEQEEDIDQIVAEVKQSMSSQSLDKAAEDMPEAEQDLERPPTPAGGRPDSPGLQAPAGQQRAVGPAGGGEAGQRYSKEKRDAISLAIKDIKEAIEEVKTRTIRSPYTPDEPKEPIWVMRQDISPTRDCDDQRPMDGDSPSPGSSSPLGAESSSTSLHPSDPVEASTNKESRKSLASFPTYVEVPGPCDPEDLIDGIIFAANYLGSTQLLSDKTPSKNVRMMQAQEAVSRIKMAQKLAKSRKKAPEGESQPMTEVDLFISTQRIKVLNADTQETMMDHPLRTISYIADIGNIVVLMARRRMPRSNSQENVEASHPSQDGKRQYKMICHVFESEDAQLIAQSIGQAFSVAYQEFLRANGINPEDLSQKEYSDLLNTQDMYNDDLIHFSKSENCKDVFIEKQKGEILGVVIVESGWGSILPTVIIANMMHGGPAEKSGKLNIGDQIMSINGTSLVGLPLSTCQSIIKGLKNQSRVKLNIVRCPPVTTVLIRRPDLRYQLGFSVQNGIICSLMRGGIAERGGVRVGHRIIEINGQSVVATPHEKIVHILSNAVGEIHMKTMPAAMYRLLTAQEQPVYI

[10] = biological target: T2, Voltage-gated N-type calcium channel alpha-1B subunit/Amyloid beta A4 precursor protein-binding family A member 1; assay: disruptors of Mint-PDZ/N-type channel peptide interaction – biochemical, HTRF, SAR follow-up (AID 2489); type: functional
[11] = biological target: Eukaryotic translation initiation factor 4E (Mus musculus, UniProt P63073); assay: blockers of eIF4G binding by eIF4E – biochemical, TR-FRET, dose response (AID 855); type: functional;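 also: potency for disrupting eIF4E binding to eIF4GI seen as loss of FRET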
[12] = biological target: Potassium voltage-gated channel subfamily KQT member 2 (Rattus norvegicus, UniProt O88943); assay: potentiation of rat KCNQ2 current – cell-based, retigabine-insensitive compounds, dose response (AID 2654); type: functional
Coagulation factor XII = biological target: T3, Coagulation factor XII (Homo sapiens, UniProt P00748); assay: activated coagulation factor XII inhibitor potency, concentration-effect curve, cell-free (AID 716); type: functional
T3 sequence (P00748 whole entry): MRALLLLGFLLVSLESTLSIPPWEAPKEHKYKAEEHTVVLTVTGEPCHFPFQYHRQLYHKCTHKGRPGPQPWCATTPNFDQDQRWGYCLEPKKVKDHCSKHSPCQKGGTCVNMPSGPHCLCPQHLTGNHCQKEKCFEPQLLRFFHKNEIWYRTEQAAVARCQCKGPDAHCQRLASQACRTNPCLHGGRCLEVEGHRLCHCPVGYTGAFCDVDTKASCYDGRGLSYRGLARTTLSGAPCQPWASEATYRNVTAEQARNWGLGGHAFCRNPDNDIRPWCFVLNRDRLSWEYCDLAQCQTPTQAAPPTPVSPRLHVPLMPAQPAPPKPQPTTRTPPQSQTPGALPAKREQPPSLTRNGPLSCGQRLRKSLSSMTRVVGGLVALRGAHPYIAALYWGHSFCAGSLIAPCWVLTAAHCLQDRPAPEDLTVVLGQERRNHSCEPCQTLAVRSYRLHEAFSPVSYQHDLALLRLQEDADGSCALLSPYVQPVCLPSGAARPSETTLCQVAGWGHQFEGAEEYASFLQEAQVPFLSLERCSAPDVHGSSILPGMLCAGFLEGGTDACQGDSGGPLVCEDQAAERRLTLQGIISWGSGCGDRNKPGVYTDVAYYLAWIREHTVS

[13] = protection from phage-mediated lysis, alamar blue read-out – E. coli UTI89, K1F phage, bacterial capsule biogenesis inhibitors (AID 488966); type: functional
[14] = THP-1 cell cytotoxicity, dose response, cytotoxicity control for non-replicating M. tuberculosis project (AID 489025); type: functional
[15] = HepG2 cell cytotoxicity, dose response, cytotoxicity control for non-replicating M. tuberculosis project (AID 489018); type: functional; conditions: Mycobacterium tuberculosis
[16] = Vero E6 cell cytotoxicity, dose response, cytotoxicity control for non-replicating M. tuberculosis project, secondary assay (AID 492998); type: functional, VeroE6; conditions: Vero C1008
cells = type: functional
Saccharomyces cerevisiae = assay: S. cerevisiae Caspase-1/ASC signal blockers IC50, NALP1 inhibitor project selectivity test (AID 488863); type: functional, organism-based
[17] = biological target: NACHT, LRR and PYD domains-containing protein 1 (Homo sapiens, UniProt Q9C000); assay: NALP1 inhibitors in yeast, dose response, luminescent (AID 488860); type: functional
NACHT, LRR and PYD domains-containing protein 1, sequence (Q9C000 1-1212 limits assumed): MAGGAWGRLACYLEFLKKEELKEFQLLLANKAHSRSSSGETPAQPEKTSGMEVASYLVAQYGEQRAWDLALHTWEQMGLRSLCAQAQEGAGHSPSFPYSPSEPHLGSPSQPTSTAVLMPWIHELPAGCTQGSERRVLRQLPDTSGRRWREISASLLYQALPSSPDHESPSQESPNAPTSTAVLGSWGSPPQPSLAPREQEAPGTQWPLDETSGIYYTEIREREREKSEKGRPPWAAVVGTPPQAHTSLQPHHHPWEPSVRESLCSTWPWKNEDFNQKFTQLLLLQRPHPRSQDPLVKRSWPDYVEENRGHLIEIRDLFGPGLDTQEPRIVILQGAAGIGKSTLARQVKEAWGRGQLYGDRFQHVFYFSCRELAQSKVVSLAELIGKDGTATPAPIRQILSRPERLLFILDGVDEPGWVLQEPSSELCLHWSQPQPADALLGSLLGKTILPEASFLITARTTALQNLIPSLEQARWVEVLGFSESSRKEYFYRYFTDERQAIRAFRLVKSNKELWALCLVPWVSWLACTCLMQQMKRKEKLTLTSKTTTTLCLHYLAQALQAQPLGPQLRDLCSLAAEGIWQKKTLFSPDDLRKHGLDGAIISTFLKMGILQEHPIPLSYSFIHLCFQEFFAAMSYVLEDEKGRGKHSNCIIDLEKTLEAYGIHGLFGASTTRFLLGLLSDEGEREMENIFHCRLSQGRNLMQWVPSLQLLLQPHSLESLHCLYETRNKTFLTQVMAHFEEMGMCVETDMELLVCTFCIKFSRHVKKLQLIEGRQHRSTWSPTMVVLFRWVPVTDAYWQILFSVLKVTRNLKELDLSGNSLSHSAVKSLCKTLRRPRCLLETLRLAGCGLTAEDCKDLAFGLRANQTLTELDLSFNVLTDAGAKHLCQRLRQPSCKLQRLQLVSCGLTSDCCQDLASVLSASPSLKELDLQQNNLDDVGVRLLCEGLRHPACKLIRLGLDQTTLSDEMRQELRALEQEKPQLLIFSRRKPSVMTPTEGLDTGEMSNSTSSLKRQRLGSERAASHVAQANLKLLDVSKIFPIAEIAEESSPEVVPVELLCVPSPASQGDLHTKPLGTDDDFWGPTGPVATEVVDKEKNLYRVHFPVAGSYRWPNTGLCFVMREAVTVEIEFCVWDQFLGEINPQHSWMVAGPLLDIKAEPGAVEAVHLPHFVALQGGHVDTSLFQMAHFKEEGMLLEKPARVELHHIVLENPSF
NACHT, LRR and PYD domains-containing protein 1, sequence (Q9C000 1213-1473 limits assumed): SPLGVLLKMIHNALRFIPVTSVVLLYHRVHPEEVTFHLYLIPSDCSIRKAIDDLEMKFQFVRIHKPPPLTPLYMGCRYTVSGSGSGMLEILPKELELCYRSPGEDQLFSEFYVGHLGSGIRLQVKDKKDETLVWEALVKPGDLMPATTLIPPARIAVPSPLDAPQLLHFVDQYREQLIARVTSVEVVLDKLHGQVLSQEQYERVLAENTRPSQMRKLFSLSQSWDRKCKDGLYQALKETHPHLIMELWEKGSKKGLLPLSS

[18] = biological target: NACHT, LRR and PYD domains-containing protein 3 (Homo sapiens, UniProt Q96P20); assay: NALP3 inhibitors in yeast, dose response, luminescent (AID 488799); type: functional
[19] = biological target: Voltage-dependent T-type calcium channel subunit alpha-1H (Homo sapiens, UniProt O95180); assay: human CACNA1H calcium influx blockade – cell-based, synthetic library set 1, calcium flux (AID 493022); type: functional
[20] = biological target: Melanin-concentrating hormone receptor 1 (Homo sapiens, UniProt Q99705); assay: Late-stage fluorescence-based counterscreen for antagonists of the G-protein coupled receptor 7 (GPR7): cell-based dose response assay to identify antagonists of the melanin-concentrating hormone receptor 1 (MCHR1). [Related pubchem assays (depositor defined):AID1861, AID1880, AID1952, AID2148, AID2251, AID2257, AID485339]; type: functional;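 also: stimulated with 30 nM MCH peptide agonist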
[21] = biological target: T4, Neuropeptides B/W receptor type 1 (Homo sapiens, UniProt P48145); assay: human NPBW1 receptor blockade, IC50 – cell-based, fluorescence, dose response, late-stage follow-up (AID 463251); type: functional
T4 sequence (P48145 whole entry): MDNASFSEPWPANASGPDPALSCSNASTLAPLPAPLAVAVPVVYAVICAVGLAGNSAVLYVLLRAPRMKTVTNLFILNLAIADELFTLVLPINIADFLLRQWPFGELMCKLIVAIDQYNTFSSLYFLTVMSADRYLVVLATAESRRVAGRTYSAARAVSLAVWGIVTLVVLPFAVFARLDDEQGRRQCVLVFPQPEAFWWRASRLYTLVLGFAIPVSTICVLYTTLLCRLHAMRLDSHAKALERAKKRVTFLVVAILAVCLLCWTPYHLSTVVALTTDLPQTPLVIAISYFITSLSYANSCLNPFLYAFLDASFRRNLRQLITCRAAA

[22] = NIH/3T3 cell viability loss – mouse embryonic fibroblasts, dry powder, set 2, cytotoxicity control, dose response (AID 493247); type: functional, cell-based; conditions: Fibroblast
Trypanosoma cruzi = assay: anti-trypanosomal activity in host cells – cell-based, plate reader, dry powder, set 3, dose response (AID 493197); type: functional
Protein Rev = Protein Rev (Human immunodeficiency virus type 1 group M subtype B (isolate HXB2)(HIV-1), UniProt P04618); assay: blockers of HIV Rev/RRE RNA complex – biochemical, fluorescence polarization, HIV-1, dose response (AID 434976); design: species or system Human immunodeficiency virus 1
[23] = biological target: Female germline-specific tumor suppressor gld-1 (Caenorhabditis elegans, UniProt Q17339); assay: blockers of GLD-1/TGE RNA complex formation – biochemical, fluorescence polarization, C. elegans, dose response (AID 2802);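 also: fluorescence polarization of labeled TGE RNA bound by purified gld-1 protein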
Female germline-specific tumor suppressor gld-1, sequence (Q17339 whole entry): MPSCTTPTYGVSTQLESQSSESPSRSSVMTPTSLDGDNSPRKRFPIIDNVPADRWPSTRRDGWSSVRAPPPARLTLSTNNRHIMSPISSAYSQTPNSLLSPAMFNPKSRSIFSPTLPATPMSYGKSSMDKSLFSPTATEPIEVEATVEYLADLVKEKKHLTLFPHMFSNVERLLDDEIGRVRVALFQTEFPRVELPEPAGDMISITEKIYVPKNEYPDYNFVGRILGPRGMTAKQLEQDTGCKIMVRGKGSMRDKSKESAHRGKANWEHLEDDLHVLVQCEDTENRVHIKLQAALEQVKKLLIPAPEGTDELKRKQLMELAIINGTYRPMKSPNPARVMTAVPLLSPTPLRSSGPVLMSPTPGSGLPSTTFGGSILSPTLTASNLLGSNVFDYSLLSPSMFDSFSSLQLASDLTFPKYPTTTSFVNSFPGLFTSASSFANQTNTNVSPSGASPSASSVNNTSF

CC(C)N1C(=O)/C(=C\c2nc(O)c3ccccc3n2)c2ccccc21
IC50 [1]: 7.59 µM (active)
IC50 (Perilipin-1/ABHD5): 6.84 µM (active)
AC50 [2]: 5.37 µM (active)

O=C(NCc1cc([N+](=O)[O-])ccc1O)c1cccnc1Sc1ccccc1Cl
EC50 [3]: > 150 µM (inactive)
EC50 [4]: 0.848 µM (active)
EC50 [5]: > 180 µM (inactive)
CC50 [6]: > 100 µM (active)
EC50 [7]: > 150 µM (inactive)

CCN1C(=O)/C(=C/N(C(C)=O)c2ccccc2)N(c2ccccc2)C1=S
IC50 (Prothrombin): > 50 µM (not active)
EC50 [8]: 18 µM (active)

CC(/C=C/c1ccco1)=NNC(=O)c1cccnc1
IC50 [9]: 6.99 µM (active)
IC50 [10]: 21.4 µM (active)

COc1ccc(-n2c(Cc3cccn3C)nnc2SCC(=O)Nc2cccc(F)c2)cc1
IC50 [11]: > 64 µM (inactive)

S=C(Nc1cccnc1)Nc1cccc(Cl)c1
EC50 [12]: 9.33 µM (active)

CCCS(=O)(=O)N1CCN(c2ccccc2F)CC1
IC50 (Coagulation factor XII): > 50 µM (inactive)

CC12CC3CC(C)(C1)CC(CN)(C3)C2
IC50 [13]: > 300 µM (active)

O=C(NNC(=O)c1ccccn1)c1cccc([N+](=O)[O-])c1
CC50 [14]: 26.7 µM (active)
CC50 [15]: > 20 µM (active)
CC50 [16]: 9.98 µM (active)
IC50 (cells): 10.9 µM (active)

Cc1ccc(NC(=O)CNc2ccc(OC(C)C)cc2)cc1
IC50 (Saccharomyces cerevisiae): 42.6 µM (active)
IC50 [17]: 22.6 µM (active)

COc1c(OC(C)=O)c(=O)n2c3ccccc3c3ccnc1c32
IC50 [18]: 1.58 µM (active)

CC(Oc1ccccc1)C(=O)Nc1nnc(-c2ccc(F)cc2)o1 (stereo not given)
EC50 [19]: 10 µM (active)

O=C(C1CCCCN1Cc1ccc(Cl)c(Cl)c1)N1CCN(c2ccc([N+](=O)[O-])cc2)CC1 (stereo not given)
IC50 [20]: 4.6 µM (active)
IC50 [21]: 2.3 µM (active)

O=C(COc1ccc2ccccc2c1)N/N=C/c1ccc([N+](=O)[O-])o1
AC50 [22]: 22.3 µM (active)
AC50 (Trypanosoma cruzi): 0.837 µM (active)

C=CCc1cccc(/C=N/n2c(C)nnc2C)c1O
IC50 (Protein Rev): > 8.39 µM (active)
IC50 [23]: 8.19 µM (active)
